Values after ≈ are worked out from the molar mass of the structure shown.
conditions: buffer; pH 7.4; 200.0 µM

Row | SMILES | solubility kinetic [µg/mL]
1 | CC1CCN(C(=O)COC(=O)c2ccccc2C(=O)c2ccccc2)CC1 | > 54.8
2 | CC(C)(O)CNC(=O)Nc1ccc(Cl)c(Cl)c1 | 24.6 (≈ 88.8 µM)
3 | CCN(C(=O)COC(=O)CCc1ccccc1)c1ccccc1 | 44.3 (≈ 142 µM)
4 | O=C(/C=C/c1cc(Br)ccc1F)OCC(=O)N1CCOCC1 | > 55.8
5 | Cc1csc(C)[n+]1CC(=O)c1ccccc1.[Br-] | > 46.8
6 | C=CCn1c(O)c(C(CC)=NCc2ccco2)c(=O)[nH]c1=O | > 45.5
7 | Cc1cc(C)c(C)c(OCC(=O)O/N=C(\N)c2cccnc2)c1 | 2.5 (≈ 7.98 µM)
8 | Cc1cc(C)nc(NC(C)(C)C(=O)O)n1 | > 31.4
9 | Cc1ccc(N2C(=O)C3CCCN3C2=S)cc1Cl (stereo not drawn) | > 42.1
10 | Cl.OC(CNCc1ccccc1)COCc1ccc(Cl)cc1 (stereo not drawn) | 34.2
11 | Cc1ccccc1N(Cc1cc(=O)[nH]c2ccccc12)C(=O)C(C)C | 36 (≈ 108 µM)
12 | O=C(Nc1ccc(C(=O)O)cc1)/C(=C\c1ccco1)NC(=O)c1ccco1 | > 54.9
13 | Cc1cc(NC(=O)CSc2ncc(C(=O)O)n2-c2ccc(F)cc2)no1 | 55.4 (≈ 147 µM)
14 | COc1ccc(NC(=O)c2cc(=O)[nH]c3ccccc23)cc1 | 2.1 (≈ 7.14 µM)
15 | O=C1c2ccccc2C(=O)N1Cc1ccccc1F | 1.5 (≈ 5.88 µM)
16 | CC(C)CC(=O)Nc1sc2c(c1C(=O)O)CCCCC2 | 42 (≈ 142 µM)
17 | CCCCOc1ccccc1C1NC(=O)CCC1[N+](=O)[O-] (stereo not drawn) | > 43.9
18 | O=C(/C=C/c1ccco1)Oc1cccc2cccnc12 | 27.1 (≈ 102 µM)
19 | Cc1ccc(C(=O)NCCCNC(=O)c2cccnc2)cc1 | > 44.6
20 | CN1C(=S)SC2CS(=O)(=O)CC21 (stereo not drawn) | > 33.5
21 | NC1=NC(c2cccnc2)n2c(nc3ccccc32)N1 (stereo not drawn) | > 39.6
22 | COc1ccc(C(=O)OCC(=O)c2ccc3[nH]c(=O)[nH]c3c2)c(OC)c1OC | 20.3 (≈ 52.5 µM)

Row | SMILES | solubility kinetic [µg/mL]
23 | O=C(CSc1nc2c(c(=O)[nH]1)CCC2)Nc1ccc(F)cc1 | 10.7 (≈ 33.5 µM)
24 | CCCC(=O)OCC(=O)NCc1ccc(Cl)cc1 | 35.8 (≈ 133 µM)
25 | Cc1ccc(NC(=O)c2ccc3nccnc3c2)c(C)c1 | > 41.6
26 | O=C(O)c1ccc(S(=O)(=O)N2CCCc3ccccc32)cc1 | > 47.6
27 | Cc1ncc(/C=C2\C(=O)Nc3ccccc32)[nH]1 | 12.1 (≈ 53.7 µM)
28 | Cc1ccc(CC(=O)O/N=C(\N)c2ccncc2)cc1 | 18.1 (≈ 67.2 µM)
29 | Cc1occc1C(=O)Nc1ccc([N+](=O)[O-])cc1Br | 1.7 (≈ 5.23 µM)
30 | COc1cc(Br)c(CN2CCCN(C)CC2)cc1OC | 44.2 (≈ 129 µM)
31 | CCc1ccc(NC(=S)N2CCCCCCC2)cc1 | 35.1 (≈ 127 µM)
32 | COC(=O)c1nn(-c2ccc(OC)cc2)ccc1=O | > 39
33 | COC(=O)[C@@H](NC(=O)NC1CCCCC1C)C(C)C (stereo partly drawn) | > 40.6
34 | COc1ccccc1CCC(=O)Oc1ccc(C#N)cc1OC | 9.5 (≈ 30.5 µM)
35 | N#CCCN1C(=O)C2(OCCO2)c2ccccc21 | > 36.6
36 | COc1cccc(OCc2ccc(Cl)cc2)c1C#N | < 0.6
37 | FC(F)Oc1cccc(NC(=S)N2CCN(c3ccccn3)CC2)c1 | 2.3 (≈ 6.31 µM)
38 | COc1cc(C=O)ccc1OCC(=O)N1CCCC1 | > 39.5
39 | Cc1cc(C(=O)OCC(=O)NC2CCCCC2C)c2ccccc2n1 (stereo not drawn) | 6.3 (≈ 18.5 µM)
40 | O=C(CN1CCN(Cc2ccccc2F)C1=O)NC1CCCC1 | > 47.9
41 | Cc1cc(Sc2ccc([N+](=O)[O-])cn2)ccc1Br | < 0.3
42 | O=C(C1CCCN(S(=O)(=O)c2ccc(Cl)cc2)C1)N1CCCC1 (stereo not drawn) | 48.7 (≈ 136 µM)
43 | Cc1ccc(NC(=O)CSc2ncc3ccccn23)cc1C | 40.5 (≈ 130 µM)
44 | Cc1ccc(C)c(S(=O)(=O)/N=C(/Nc2ccccc2)c2ccccc2)c1 | 17.2 (≈ 47.2 µM)

Row | SMILES | solubility kinetic [µg/mL]
45 | Cc1cccc(C(=O)Nc2cccnc2Cl)c1 | > 37
46 | O=[N+]([O-])c1ccc(SCCc2cc[nH+]cc2)cc1.[Cl-] | 36.5
47 | Cn1cnnc1SCC(=O)Nc1ccc(N2CCOCC2)cc1 | > 50
48 | O=C(Cc1ccsc1)Nc1ccc(Cl)cc1Cl | 3.8 (≈ 13.3 µM)
49 | COc1ccc(CCNC(=O)COC(=O)c2cccn2C)cc1 | > 47.5
50 | COc1ccc(CNC(=O)/C=C/C(=O)O)cc1 | 35 (≈ 149 µM)
51 | O=C(NCCCCc1ccccc1)c1ccc(F)cc1 | 1.4 (≈ 5.16 µM)
52 | COc1ccccc1-c1nc(COc2ccc(Cl)cc2Cl)no1 | < 0.4
53 | Cc1cc(C)c(NC(=O)C(C)N2CCCCCC2)c(C)c1.Cl (stereo not drawn) | 36.6
54 | CCCn1c(SCC(=O)N(CC)CC)nnc1-c1ccncc1 | > 50
55 | O=C(NC(=S)NCc1ccccc1)c1ccccc1Br | < 0.4
56 | O=C(CSc1ccc([N+](=O)[O-])cc1)NCC1CCCCC1 | 8.2 (≈ 26.6 µM)
57 | CCCCN1C(=O)C(=O)N(CC(=O)Nc2ccccc2C(C)=O)C1=O | > 51.8
58 | CN1CCN(C(=O)c2cc(=O)c3cc(Cl)ccc3o2)CC1 | > 46
59 | O=C(Nc1csc([N+](=O)[O-])c1)Nc1ccccc1Cl | 1 (≈ 3.36 µM)
60 | Cc1cccc(NC(=O)Nc2ccc(Br)cc2)n1 | < 0.2
61 | Cc1ccc(C(=O)NCCCc2ccccc2)c(Cl)c1 | 31.9 (≈ 111 µM)
62 | CCNC(=O)c1cnn(-c2ccccc2)c1-c1ccccc1 | > 43.7
63 | COCCCNC(=O)c1ccc(CSCc2ccc(C)cc2)o1 | 49.8 (≈ 149 µM)
64 | CCC(NC(=S)NC1CCCCC1)c1ccccc1 (stereo not drawn) | 3.8 (≈ 13.7 µM)
65 | CC(NC(=O)C1CCC(C)(C(=O)O)C1(C)C)c1ccccc1 (stereo not drawn) | > 45.5
66 | COC(=O)Cn1c(=O)oc2ccc(C)cc21 | > 33.2

Row | SMILES | solubility kinetic [µg/mL]
67 | Cc1ncc([N+](=O)[O-])n1CC(=O)Nc1ccccc1F | > 41.7
68 | CC(=O)Nc1ccc(S(=O)(=O)N(C)CC(=O)OCC(=O)c2ccc[nH]2)cc1 | > 59
69 | O=C(/C=C/c1c(Cl)cccc1Cl)N1CCOCC1 | > 42.9
70 | O=C(NC1CC1)c1cc(Cl)nc2ccccc12 | > 37
71 | CC(NC(=O)c1ccccc1Cl)c1ccc(-n2ccnc2)cc1 (stereo not drawn) | > 48.9
72 | Nn1c(SCC(=O)NC2CCCc3ccccc32)nnc1C1CC1 (stereo not drawn) | > 51.5
73 | CCCn1c(=S)[nH]c2ccc(C(F)(F)F)cc21 | 20.7 (≈ 79.5 µM)
74 | O=C(CSCc1ccc(Cl)cc1)Nc1ccc(O)cc1C(=O)O | > 52.8
75 | FC(F)(F)c1ccc(Cl)c(NC2=NCCCCC2)c1 | > 43.6
76 | Cc1ccsc1C(=O)NCCc1ccco1 | 33.5 (≈ 142 µM)
77 | Cc1cc(C(=O)N2CCN(c3ncccc3C#N)CC2)no1 | 43.7 (≈ 147 µM)
78 | COc1cccc(CN(C)C(=S)Nc2ccc(C)c(C)c2)c1 | 25.1 (≈ 79.8 µM)
79 | COc1ccccc1NC(=O)C1=C(C)NC(=O)NC1c1ccco1 (stereo not drawn) | > 49.1
80 | CCCC1CCC(c2ccc(/C(N)=N/O)cc2)CC1 (stereo not drawn) | < 0.3
81 | O=C(CCCc1ccccc1)Nc1ccccc1[N+](=O)[O-] | 15.2 (≈ 53.5 µM)
82 | CCOC(=O)c1ccccc1NC(=O)C1CCCO1 (stereo not drawn) | > 39.5
83 | COc1ccc(CN(C)C(=O)Cc2ccsc2)c(OC)c1OC | 35.2 (≈ 105 µM)
84 | Cc1ccc(S(=O)(=O)N(CC(=O)N2CCOCC2)c2ccc(C(C)C)cc2)cc1 | 4.6 (≈ 11 µM)
85 | O=C1Nc2ccccc2C1Cc1nc2ccccc2c(=O)n1-c1ccccc1 (stereo not drawn) | 55.1 (≈ 150 µM)
86 | COC(=O)C(C)Oc1ccc(Cl)c(CN2OCC(C)(C)C2=O)c1 (stereo not drawn) | > 51.3
87 | CC(NC(=O)OCc1ccccc1)c1ccccc1 (stereo not drawn) | > 38.3
88 | COc1ccc(Cc2nc3ccccc3n2C)cc1.Cl | 42.3

Source: PubChem BioAssay AID1996
